Literature values as cited in patent US10711043B2, “Compositions and vaccines comprising vesicles and methods of using the same” (priority 2013, dated 2020).

For COc1cc2cc(c1Cl)N(C)C(=O)C[C@H](OC(=O)[C@H](C)N(C)C(C)=O)[C@]1(C)O[C@H]1[C@H](C)[C@@H]1C[C@@](O)(NC(=O)O1)[C@H](OC)/C=C/C=C(\C)C2 [Maytansine, maytansine], the solubility is listed as “insoluble in water and most solvents”.
